From patent publication US20230355597A1, “COMPOUNDS, COMPOSITIONS, AND METHODS FOR THE TREATMENT AND PREVENTION OF AVIAN PATHOGENIC E. COLI (APEC)” (OHIO STATE INNOVATION FOUNDATION, priority 2018, published 2023) come the findings set out here.

In one data set the test system is AI-2 activity of APEC O2. As to the kind of experiment: AI-2 bioluminescence indicator assay (V. harveyi BB170). As to conditions: APEC O2, 100 µM.
The test system of another data set is AI-2 activity of APEC O1. The data set is described as above. As to conditions: APEC O1, 100 µM.
In data set [1] the test system is AI-2 activity of APEC O78. The description is as above. Conditions: APEC O78, 100 µM.
The test system of data set [2] is AI-2 activity of APEC O115. The description is as above. As to conditions: APEC O115, 100 µM.
In data set [3] the test system is AI-2 activity of APEC O35. The description is as above. As to conditions: APEC O35, 100 µM.
The subject of data set [4] is QS and virulence associated genes of APEC O78. As to the kind of experiment: qRT-PCR of QS-regulated and virulence factors genes. As to conditions: 100 µM, 10 h. In kind it is cell-based, avian pathogenic Escherichia coli (APEC). As for the experimental part: Quantitative real-time reverse transcription PCR (qRT-PCR). […] APEC O78 was grown in the presence of 100 µM of each compound in a 96-well plate at 37° C. for 10 h. APEC O78 culture treated with 1 µL of 100% DMSO was used as […]. Total RNA was extracted from duplicate wells for each compound (200 µL) using a miRNeasy Mini Kit (Qiagen). RNA quality and quantity was determined by nanodrop 2000 C spectrophotometer (Thermo scientific). Traces of DNA was removed using Genomic DNA removal mix (Qiagen). Approximately, 5 µg of purified RNA was used to synthesize cDNA using the Qiagen RT^2 First Strand Kit (Qiagen). The qRT-PCR was performed using SensiMix™ SYBER® Hi-Rox qPCR Master Mix (Bioline) according to manufacturer instructions in a realplex^2 mastercycler (Eppendorf) with 55° C. annealing temperature. Gene-specific primers were designed using PrimerQuest Tool and obtained from integrated DNA technologies (IDT). The data were normalized to the house-keeping gene, glyceraldehyde-3-phosphate dehydrogenase (GAPDH). The relative fold change was calculated using the ΔΔCt method. Three independent experiments were conducted.

A further data set has as its system AI-2 activity of APEC O8. As to the kind of experiment: AI-2 bioluminescence indicator assay (V. harveyi BB170). Conditions: APEC O8, 100 µM.
Data set [5] concerns AI-2 activity of APEC O18. Described as above. Conditions: APEC O18, 100 µM.
The test system of data set [6] is AI-2 activity of APEC O109. The description is as above. As to conditions: APEC O109, 100 µM.
Another data set has as its system APEC O1 in HD-11 cells. Kind of data set: Intracellular survival assay (AI-2 inhibitors). As to conditions: O1, HD-11, 100 µM, 6 h.
Data set [7] has as its system AI-2 activity of APEC O15. Kind of data set: AI-2 bioluminescence indicator assay (V. harveyi BB170). Conditions: APEC O15, 100 µM.
The test system of a further data set is APEC O2 in HD-11 cells. As to the kind of experiment: Intracellular survival assay (AI-2 inhibitors). As to conditions: O2, HD-11, 100 µM, 6 h.
The next data set relates to APEC O2 in THP-1 cells. As to the kind of experiment: Intracellular survival assay (AI-2 inhibitors). Conditions: O2, THP-1, 100 µM, 6 h.
The test system of the next data set is APEC O78 in HD-11 cells. As to the kind of experiment: Intracellular survival assay (AI-2 inhibitors). In kind it is cell-based, avian pathogenic Escherichia coli (APEC). As to conditions: O78, HD-11, 100 µM, 6 h. The source says: Intracellular survival assay.
The next data set has as its system APEC O78 in THP-1 cells. As to the kind of experiment: Intracellular survival assay (AI-2 inhibitors). As to conditions: O78, THP-1, 100 µM, 6 h, vs DMSO.
The subject of another data set is Caco-2 cells. Kind of data set: LDH assay of AI-2 inhibitors. Conditions: Caco-2, 100 µM, 24 h.
The subject of data set [8] is Rif^r APEC O78. Kind of data set: In vivo screening of quorum sensing inhibitors in APEC infected broiler chickens. Conditions: for reduction in chicken mortality: DMSO control mortality normalized to 100%; for Mortality rate (%): oral gavage once a day, day 4 to day 8, DMSO control 66.7%; for Reduction in APEC lesions severity, Air-sacs (%) / Reduction in APEC lesions severity, Heart (%) / Reduction in APEC lesions severity, Liver (%) / Reduction in APEC lesions severity, Lung (%): vs DMSO treated control.

For data set [9], the system named is Rif^r APEC O78. Kind of data set: Wax moth (Galleria mellonella) larva infection model (AI-2 inhibitors). As to conditions: 72 h post treatment.
Data set [10] concerns APEC O78 biofilm formation. Kind of data set: Biofilm assay (crystal violet). Conditions: 100 µM, 48 h. In kind it is cell-based, avian pathogenic Escherichia coli (APEC). How it is done: Biofilm assay. […] Briefly, APEC O78 was grown in LB broth in the presence of 100 µM of each compound in a 96-well plate at 37° C. for 10 h. The culture was then diluted 1:100 in fresh LB broth. The biofilm assay was performed in 96-well plate contain 150 µL of the diluted culture and 100 µM of each compound. The plate was then incubated aerobically without shaking at 37° C. for 48 h, washed twice with PBS to remove the non-adherent cells and stained with 200 µL of 0.1% CV in water at room temperature for 10 min. The plate was washed with PBS and biofilm was quantified by measuring the absorbance at 550 nm after solubilizing the CV in 200 µL of 30% acetic acid in water for 15 min.

For the compound `NC(=O)c1ccccc1Nc1cccc(C(F)(F)F)c1` [C3, 2-[[3-(trifuoromethyl)phenyl]amino]benzamide], the “Inhibition % of AI-2 activity” value in the data set on AI-2 activity of APEC O2 turned out to be 54%; in the data set on AI-2 activity of APEC O1, 65%; in data set [1], 78%; in data set [2], 35%; in [3], 37%; in the data set with AI-2 activity of APEC O8 it was 39%. In addition, the “Inhibition % of AI-2 activity” value came out at 8% in [5], 0% in [6] and 0% in data set [7]. Also, the expression of fpr result in [4] is reported as “down-regulated”. In addition, the “clearance of intracellular APEC” value in the data set with APEC O1 in HD-11 cells is reported as 100%. Besides, the “reduction of intracellular survival” value with APEC O1 in HD-11 cells (vs DMSO) was found to be 4 logs.
Consider `OCCC1CN(C2CCN(c3ccccc3)CC2)CCN1CCCc1ccccc1` (stereo not drawn) [C10], for which the “Inhibition % of AI-2 activity” value stood at 89% in the data set with AI-2 activity of APEC O2; 64% in the data set with AI-2 activity of APEC O1; 84% in data set [1]; 47% in data set [3]; 0% with AI-2 activity of APEC O8; 35% in [5]. Moreover, the “Inhibition % of AI-2 activity” value in [6] came out at 57%; in [7], 22%. The “clearance of intracellular APEC” value in the data set on APEC O2 in HD-11 cells, in the data set on APEC O2 in THP-1 cells and with APEC O78 in HD-11 cells was 100% throughout. Besides, the “reduction of intracellular survival” value with APEC O2 in HD-11 cells (vs DMSO) was 3.3 logs; in the data set on APEC O2 in THP-1 cells (vs DMSO) it was 4 logs; with APEC O78 in HD-11 cells (vs DMSO) it was 4 logs; in the data set on APEC O78 in THP-1 cells, “up to 0.7 logs”. For the same compound, the “expression of fliP” value in data set [4] was “down-regulated”. Further, in the data set on Caco-2 cells, the “toxicity (LDH)” value came to 27%. In addition, the “reduction in chicken mortality” value with Rif^r APEC O78 [8] was 75%. Moreover, the “average lesion score reduction” value with Rif^r APEC O78 [8] (liver, heart, lung and airsac, vs DMSO) was 1.5-2.3. The “reduction of bacterial load in internal organs” value with Rif^r APEC O78 [8] (liver, lung, heart, and kidney, vs DMSO control, 'up to') is 3.4-4.3 log CFU/g. Besides, in the data set on Rif^r APEC O78 [8], the “Mortality rate (%)” value came to 16.6%. In addition, the “Reduction in APEC lesions severity, Air-sacs (%)” value with Rif^r APEC O78 [8] worked out at 88.9%. In addition, the “Reduction in APEC lesions severity, Heart (%)” value in the data set on Rif^r APEC O78 [8] was found to be 83.3%. Besides, the “Reduction in APEC lesions severity, Liver (%)” value in the data set on Rif^r APEC O78 [8] was determined as 100%. Also, in the data set on Rif^r APEC O78 [8], the “Reduction in APEC lesions severity, Lung (%)” value came out at 100%.
Regarding `COCCN1CCC(CN(Cc2ccncc2)Cc2ccccc2Cl)CC1` [C1, {2-chlorobenzyl)([1(2-methoxyethyly-4-piperidinyl]methyl)4-pyridinyimethyl)amine], the “Inhibition % of AI-2 activity” value with AI-2 activity of APEC O2 came out at 94%; in [1] it was 84%; in [2] it was 64%; in data set [3] it was 48%; in the data set on AI-2 activity of APEC O8, 20%; in data set [5], 37%. Moreover, the “Inhibition % of AI-2 activity” value in [6] is given as 65%; in data set [7] it was 13%. Besides, the “expression of murD” value in data set [4] is given as “down-regulated”. Besides, in the data set on Rif^r APEC O78 [9], the larval death entry is “no larval death”. Also, the “induction of biofilm formation of APEC O78” value in [10] is reported as “up to 100%”. For the same compound, the “reduction in chicken mortality” value in the data set with Rif^r APEC O78 [8] is 25%. Further, the “Mortality rate (%)” value in the data set with Rif^r APEC O78 [8] amounted to 50%. Also, in the data set on Rif^r APEC O78 [8], the “Reduction in APEC lesions severity, Air-sacs (%)” value turned out to be 26.7%. The “Reduction in APEC lesions severity, Heart (%)” value in the data set on Rif^r APEC O78 [8] was 0%. Further, the “Reduction in APEC lesions severity, Liver (%)” value in the data set with Rif^r APEC O78 [8] came out at 0%. The “Reduction in APEC lesions severity, Lung (%)” value with Rif^r APEC O78 [8] is recorded as 66.7%.
